Consider 41 compounds from patent publication US20250313548A1 (Actio Biosciences, Inc., priority 2023, published 2025).

What is called IC50 is the concentration at which inhibition is half-maximal. Read a high IC50 as weaker potency.

For the assay, the target named is human, KCNT1 (Homo sapiens (Human), UniProt Q5JUK3). Description: FLIPR Tl/K Flux Assay. The assay is classed as cell-based. To be noted: HEK293 cells stably expressing human KCNT1; Tl+ flux stimulated with EC80 of agonist Loxapine. In outline: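 Inhibition values come from a Hill-equation fit of % inhibition versus log concentration, using normalized fluorescence (Fmax/Fmin) over a 160 s read. The read followed stimulation with Tl+ plus EC80 agonist loxapine after 30 min compound pre-incubation at 25 °C. Cells were KCNT1-expressing HEK293, dye-loaded 1 h in pH 7.4 HEPES/HBSS with 5 mM probenecid.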
Sequence of human, KCNT1 (Q5JUK3 whole entry): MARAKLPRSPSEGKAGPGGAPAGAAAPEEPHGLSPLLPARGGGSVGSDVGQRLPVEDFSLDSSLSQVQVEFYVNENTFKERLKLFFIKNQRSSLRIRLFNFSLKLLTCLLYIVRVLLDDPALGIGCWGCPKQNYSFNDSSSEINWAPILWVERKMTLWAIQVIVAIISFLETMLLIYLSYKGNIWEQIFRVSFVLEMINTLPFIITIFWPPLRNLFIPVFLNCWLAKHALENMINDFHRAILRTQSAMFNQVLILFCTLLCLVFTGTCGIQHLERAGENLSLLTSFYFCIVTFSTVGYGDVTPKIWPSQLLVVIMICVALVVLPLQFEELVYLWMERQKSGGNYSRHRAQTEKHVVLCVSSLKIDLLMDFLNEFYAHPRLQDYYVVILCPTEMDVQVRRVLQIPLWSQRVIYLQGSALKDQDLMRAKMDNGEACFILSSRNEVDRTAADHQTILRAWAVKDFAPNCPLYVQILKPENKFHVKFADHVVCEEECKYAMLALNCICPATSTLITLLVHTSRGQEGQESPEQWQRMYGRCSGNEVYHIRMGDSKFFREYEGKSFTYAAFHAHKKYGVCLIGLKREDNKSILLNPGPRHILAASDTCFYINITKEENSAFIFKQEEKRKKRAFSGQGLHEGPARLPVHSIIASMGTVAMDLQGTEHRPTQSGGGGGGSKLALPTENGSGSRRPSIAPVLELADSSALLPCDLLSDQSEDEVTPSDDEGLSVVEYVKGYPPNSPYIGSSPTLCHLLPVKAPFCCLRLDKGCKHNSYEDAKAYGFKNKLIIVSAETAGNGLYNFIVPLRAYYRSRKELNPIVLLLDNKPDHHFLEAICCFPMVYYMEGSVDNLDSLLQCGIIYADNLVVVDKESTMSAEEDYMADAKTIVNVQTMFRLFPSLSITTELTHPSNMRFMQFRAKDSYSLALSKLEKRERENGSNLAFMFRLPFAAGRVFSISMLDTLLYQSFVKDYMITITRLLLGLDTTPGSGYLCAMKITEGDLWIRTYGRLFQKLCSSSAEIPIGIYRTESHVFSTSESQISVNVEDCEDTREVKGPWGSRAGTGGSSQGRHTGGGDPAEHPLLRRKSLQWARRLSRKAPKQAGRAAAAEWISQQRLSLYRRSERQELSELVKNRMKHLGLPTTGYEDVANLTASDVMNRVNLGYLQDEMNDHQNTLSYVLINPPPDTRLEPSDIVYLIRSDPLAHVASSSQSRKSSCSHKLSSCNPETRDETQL
As for `COc1cc(-c2cc3n(n2)CCCC[C@@H]3NC(=O)c2cc(F)cc(C#N)c2)ccn1` [Compound I-312a, (S)-3-Cyano-5-fluoro-N-(2-(2-methoxypyridin-4-yl)-5,6,7,8-tetrahydro-4H-pyrazolo[1,5-a]azepin-4-yl)benzamide], the IC50 is < 250 nM.
As for `COc1cc(-c2nc3c(o2)[C@@H](NC(=O)c2cccc(C(F)(F)F)c2)CCC3)c(Cl)cn1` [Compound I-167a, (S)-N-(2-(5-Chloro-2-methoxypyridin-4-yl)-4,5,6,7-tetrahydrobenzo[d]oxazol-7-yl)-3-(trifluoromethyl)benzamide], the 50% inhibitory concentration (IC50) is < 250 nM.
On to `O=C(N[C@@H]1CCCn2nc(-c3cc(C(F)(F)F)ncc3F)nc21)c1cncc(C(F)(F)F)n1` [Compound I-502b], for which the IC50 was > 1000 nM.
As for `O=C(N[C@H]1CCCn2nc(-c3ccnc(C(F)(F)F)c3)cc21)c1nc2ccccn2n1` [Compound I-422a], the IC50 was > 1000 nM.
`COc1cc(-c2nc3c(o2)[C@@H](NC(=O)c2cncc(C(F)(F)F)n2)CCC3)c(Cl)cn1` [Compound I-161a, (S)-N-(2-(5-Chloro-2-methoxypyridin-4-yl)-4,5,6,7-tetrahydrobenzo[d]oxazol-7-yl)-6-(trifluoromethyl)pyrazine-2-carboxamide]: the IC50 is 250 to 500 nM.
As for `CCOc1cc(-n2cc3c(n2)CCCC[C@@H]3NC(=O)c2cc(C(F)(F)F)nn2C)ccn1` [Compound I-360a], the IC50 was < 250 nM.
In the case of `Cc1cnc(C(F)(F)F)cc1-c1cc2n(n1)CC[C@@H]2NC(=O)c1cccc(C#N)c1` [Compound I-144a, (S)-3-Cyano-N-(2-(5-methyl-2-(trifluoromethyl)pyridin-4-yl)-5,6-dihydro-4H-pyrrolo[1,2-b]pyrazol-4-yl)benzamide], the IC50 is < 250 nM.
On to `O=C(NC1CCc2cnc(-c3ccnc(C(F)(F)F)c3)cc21)c1cc(F)cc(F)c1` (centres unmarked) [Compound I-478], for which the IC50 was < 250 nM.
Consider `COc1cc(-c2cc3n(n2)CCCC[C@H]3NC(=O)c2cc(F)cc(C#N)c2)c(F)cn1` [Compound I-516b], for which the IC50 lay within 500 to 1000 nM.
`Cn1nc(C(F)(F)F)cc1C(=O)N[C@H]1CCCn2nc(-c3ccnc(C(C)(F)F)c3)cc21` [Compound I-379a]: the 50% inhibitory concentration (IC50) is < 250 nM.
As to `COc1cc(C#N)cc(C(=O)N[C@H]2CCCn3nc(-c4ccnc(C(F)(F)F)c4)cc32)c1` [Compound I-341a, (S)-3-Cyano-5-methoxy-N-(2-(2-(trifluoromethyl)pyridin-4-yl)-4,5,6,7-tetrahydropyrazolo[1,5-a]pyridin-4-yl)benzamide], the concentration for half-maximal inhibition (IC50) is < 250 nM.
Turning to `CC(C)Oc1cc(C(=O)N[C@H]2CCCn3nc(-c4ccnc(C(F)(F)F)c4)cc32)n(C)n1` [Compound I-367a], the half-inhibitory concentration (IC50) is < 250 nM.
On to `CCOc1cc(-n2cc3c(n2)CCCC3NC(=O)c2cc(C(F)(F)F)nn2CC)ccn1` (racemic) [Compound I-55, (rac)-N-(2-(2-Ethoxypyridin-4-yl)-4,5,6,7-tetrahydro-2H-indazol-4-yl)-1-ethyl-3-(trifluoromethyl)-1H-pyrazole-5-carboxamide], for which the IC50 was < 250 nM.
As for `O=C(N[C@@H]1CCCc2nc(-c3ccnc(C(F)(F)F)c3)oc21)c1cncc(C(F)(F)F)n1` [Compound I-510b], the figure is > 1000 nM.
Turning to `COc1cc(C2=NC3C(NC(=O)c4cccc(C#N)c4)CCCCC3N2)ccn1` (centres unmarked) [Compound I-464], the IC50 is > 1000 nM.
Next, `COc1cc(C(=O)N[C@H]2CCCCn3nc(-c4ccnc(C(F)(F)F)c4)cc32)ccn1` [Compound I-329a, (S)-2-Methoxy-N-(2-(2-(trifluoromethyl)pyridin-4-yl)-5,6,7,8-tetrahydro-4H-pyrazolo[1,5-a]azepin-4-yl)isonicotinamide]: < 250 nM; `Cn1nc(C(F)(F)F)nc1C(=O)N[C@H]1CCCn2nc(-c3cc(C4CC4)ncc3F)cc21` [Compound I-495a, (S)-N-(2-(2-Cyclopropyl-5-fluoropyridin-4-yl)-4,5,6,7-tetrahydropyrazolo[1,5-a]pyridin-4-yl)-1-methyl-3-(trifluoromethyl)-1H-1,2,4-triazole-5-carboxamide]: < 250 nM.
With `COc1cc(-c2cc3n(n2)CCCC[C@@H]3NC(=O)c2cc(C(F)(F)F)nn2C)c(F)cn1` [Compound I-212a, (S)-N-(2-(5-Fluoro-2-methoxypyridin-4-yl)-5,6,7,8-tetrahydro-4H-pyrazolo[1,5-a]azepin-4-yl)-1-methyl-3-(trifluoromethyl)-1H-pyrazole-5-carboxamide], the IC50 was < 250 nM.
Regarding `O=C(N[C@H]1CCn2nc(-c3ccnc(C4CC4)c3)cc21)c1cc2cccnn2c1` [Compound I-279a, (S)-N-(2-(2-Cyclopropylpyridin-4-yl)-5,6-dihydro-4H-pyrrolo[1,2-b]pyrazol-4-yl)pyrrolo[1,2-b]pyridazine-6-carboxamide], the IC50 was < 250 nM.
For `COc1cc(-c2cc3n(n2)CC[C@@H]3NC(=O)c2cc(F)cc(C#N)c2)ccn1` [Compound I-301a, (S)-3-Cyano-5-fluoro-N-(2-(2-methoxypyridin-4-yl)-5,6-dihydro-4H-pyrrolo[1,2-b]pyrazol-4-yl)benzamide], the IC50 is < 250 nM.
As to `O=C(N[C@H]1CCCn2nc(-c3ccnc(C4CC4)c3)cc21)c1cc(Cl)cc(C(F)(F)F)c1` [Compound I-111a], the IC50 was < 250 nM.
For the compound `COc1cc(-c2nc3c(o2)CCC[C@@H]3NC(=O)c2cc(C(F)(F)F)nn2C)ccn1` [Compound I-428a], the IC50 was < 250 nM.
As for `CCOc1cc(C(=O)N[C@H]2CCn3nc(-c4cc(C(F)(F)F)ncc4F)cc32)ccn1` [Compound I-318a, (S)-2-Ethoxy-N-(2-(5-fluoro-2-(trifluoromethyl)pyridin-4-yl)-5,6-dihydro-4H-pyrrolo[1,2-b]pyrazol-4-yl)isonicotinamide], the figure is < 250 nM.
For `COc1cc(F)cc(C(=O)N[C@H]2CCc3nn(-c4ccnc(C(F)(F)F)c4)cc32)c1` [Compound I-561a, (S)-3-Fluoro-5-methoxy-N-(2-(2-(trifluoromethyl)pyridin-4-yl)-2,4,5,6-tetrahydrocyclopenta[c]pyrazol-4-yl)benzamide], the IC50 is < 250 nM.
On to “(S)—N-(2-(2-Cyclopropyl-5-fluoropyridin-4-yl)-5,6-dihydro-4H-pyrrolo[1,2-b]pyrazol-4-yl)-1-methyl-3-(trifluoromethyl)-1H-pyrazole-5-carboxamide [Compound I-154a]”, for which the IC50 was < 250 nM.
With `Cn1nc(C(F)(F)F)cc1C(=O)N[C@@H]1CCCc2ncc(-c3ccnc(C(F)(F)F)c3)cc21` [Compound I-383b], the IC50 was > 1000 nM.
Regarding `O=C(N[C@H]1CCCn2nc(-c3ccnc(C(F)(F)F)c3)cc21)c1nccc(C(F)(F)F)n1` [Compound I-438a], the IC50 is > 1000 nM.
In turn, `COc1cc(-c2nc3c(o2)[C@@H](NC(=O)c2cncc(C(F)(F)F)n2)CCC3)c(F)cn1` [Compound I-173a] displayed an IC50 of 250 to 500 nM.
With `COc1cc(-c2cc3n(n2)CC[C@@H]3NC(=O)c2cc(F)cc(F)c2)ccn1` [Compound I-447a], the IC50 was < 250 nM.
Take `O=C(N[C@H]1CCn2nc(-c3ccnc(C(F)(F)F)c3)cc21)c1cn(C(F)(F)F)nc1C(F)(F)F` [Compound I-521a, (S)-1,3-bis(trifluoromethyl)-N-(2-(2-(trifluoromethyl)pyridin-4-yl)-5,6-dihydro-4H-pyrrolo[1,2-b]pyrazol-4-yl)-1H-pyrazole-4-carboxamide]: the half-maximal inhibitory concentration (IC50) is < 250 nM.
In turn, `Cn1nc(C(F)(F)F)nc1C(=O)N[C@@H]1CCn2nc(-c3cc(C(F)(F)F)ncc3Cl)cc21` [Compound I-481b] showed an IC50 of 250 to 500 nM.
Consider `Cn1nc(C(F)(F)F)cc1C(=O)N[C@@H]1CCCCn2nc(-c3cc(C(F)(F)F)ncc3F)cc21` [Compound I-476b], for which the IC50 lay within 250 to 500 nM.
Take `COc1cc(-c2nc3c(o2)[C@@H](NC(=O)c2cc(Cl)cc(Cl)c2)CCC3)c(Cl)cn1` [Compound I-162a, (S)-3,5-Dichloro-N-(2-(5-chloro-2-methoxypyridin-4-yl)-4,5,6,7-tetrahydrobenzo[d]oxazol-7-yl)benzamide]: the 50% inhibitory concentration (IC50) is < 250 nM.
`N#Cc1c(C(=O)N[C@H]2CCCn3nc(-c4ccnc(C(F)(F)F)c4)cc32)ncn1CC(F)(F)F` [Compound I-425a]: the concentration for half-maximal inhibition (IC50) was > 1000 nM.
As for `Cn1nc(C(F)(F)F)cc1C(=O)N[C@@H]1CCCc2nn(-c3ccnc(C(F)(F)F)c3)cc21` [Compound I-4b, (R)-1-Methyl-3-(trifluoromethyl)-N-(2-(2-(trifluoromethyl)pyridin-4-yl)-4,5,6,7-tetrahydro-2H-indazol-4-yl)-1H-pyrazole-5-carboxamide], the IC50 is > 1000 nM.
`Cn1nc(C2CC2)cc1C(=O)N[C@@H]1CCCCc2nn(-c3ccnc(C(F)(F)F)c3)cc21` [Compound I-369b]: the IC50 is > 1000 nM.
As to `Cn1nc(C(F)(F)F)cc1C(=O)NC1CCCCn2nc(-c3ccnc(C4CC4)c3)cc21` (single isomer, unassigned) [Compound I-67], the IC50 is < 250 nM.
On to `Cn1nc(C(F)(F)F)cc1C(=O)N[C@H]1CCCn2nc(-c3ccnc(CO)c3)cc21` [Compound I-322a, (S)—N-(2-(2-(Hydroxymethyl)pyridin-4-yl)-4,5,6,7-tetrahydropyrazolo[1,5-a]pyridin-4-yl)-1-methyl-3-(trifluoromethyl)-1H-pyrazole-5-carboxamide], for which the IC50 is > 1000 nM.
In the case of `O=C(N[C@H]1CCCn2nc(-c3ccnc(C(F)(F)F)c3)cc21)c1ccc(F)c(C(F)(F)F)c1` [Compound I-410a], the 50% inhibitory concentration (IC50) was < 250 nM.
Take `Cc1cc(F)cc(C(=O)N[C@@H]2CCc3nn(-c4ccnc(C(F)(F)F)c4)cc32)c1` [Compound I-384b]: the half-maximal inhibitory concentration (IC50) is < 250 nM.
As for `Cn1nc(C(F)(F)F)cc1C(=O)N[C@H]1CC(C)(C)Cn2nc(-c3ccnc(C(F)(F)F)c3)cc21` [Compound I-219a, (S)—N-(6,6-Dimethyl-2-(2-(trifluoromethyl)pyridin-4-yl)-4,5,6,7-tetrahydropyrazolo[1,5-a]pyridin-4-yl)-1-methyl-3-(trifluoromethyl)-1H-pyrazole-5-carboxamide], the figure is > 1000 nM.
